This note sets out measurements from paper PMC11291776, “The development of ^177Lu-DOTA-CC-PSMA following a unified “Click Chemistry” protocol of synthesizing metal nuclide-conjugated radiopharmaceuticals” (EJNMMI Radiopharmacy and Chemistry, 2024).

The data set can be described thus: Pharmacokinetics (blood radioactivity after i.v. injection). The data set is classed as in vivo. Particulars: healthy BALB/c male mice, i.v. 3.7 MBq, blood 2-240 min, DAS 2.0. The method, then: ^177Lu-DOTA-CC-PSMA (3.7 MBq in 100 µL) or ^177Lu-PSMA-617 (3.7 MBq in 100 µL) was administered intravenously via the tail into BALB/c male mice (n = 6), and a venous blood sample (5 µL) was collected from the tail end of each mouse at different time points after injection (2, 4, 6, 10, 15, 30, 60, 120, and 240 min). The radioactivity of the blood samples was measured by γ-counter, and the pharmacokinetics data were obtained using the DAS 2.0 software.

`O=C([O-])CN1CCN(CC(=O)[O-])CCN(CC(=O)NCC2CCC(C(=O)N[C@@H](Cc3ccc4ccccc4c3)C(=O)NCCCC[C@H](NC(=O)N[C@@H](CCC(=O)O)C(=O)O)C(=O)O)CC2)CCN(CC(=O)[O-])CC1.[177Lu+3]` (stereo partly shown) [^177Lu-PSMA-617]: the blood clearance half-life is on record as 17.18 min.
